# System: P. aeruginosa
# Assay: microbe, parasite or virus in culture
# Method in brief: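 MICs were scored by eye after 18-20 h static incubation at 37 °C, with bacteria at 5 × 10^5 CFU mL^−1 in MHB. Peptides were serially diluted 2-fold over 12 points, top 128 or 64 μg mL^−1. CAMHB (CLSI) and 1% agarose-MHB variants were also run, at least six replicates.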
smiles,measurement,setting,value
NC[C@H]1O[C@H](O[C@H]2[C@H](O)[C@@H](O[C@H]3O[C@H](CO)[C@@H](O)[C@H](N)[C@H]3O)[C@H](N)C[C@@H]2N)[C@H](N)C[C@@H]1O [TOB],"MIC, broth microdilution","P. aeruginosa ATCC 27853 spontaneous mutant, AA139 selection 8X, plate 1, colony 5, drug-free passage 5","0.5, 0.5 µg/mL"
same,"MIC, broth microdilution",P. aeruginosa UNT 138-1 parent strain not exposed to drug,0.5 µg/mL
same,"MIC, broth microdilution","P. aeruginosa UNT 138-1 spontaneous mutant, AA139 selection 4X, plate 1, colony 1, drug-free passage 1","1, 1 µg/mL"
same,"MIC, broth microdilution","P. aeruginosa UNT 138-1 spontaneous mutant, AA139 selection 4X, plate 1, colony 1, drug-free passage 5","1, 1 µg/mL"
same,"MIC, broth microdilution","P. aeruginosa UNT 138-1 spontaneous mutant, AA139 selection 4X, plate 1, colony 2, drug-free passage 1","0.5, 0.5 µg/mL"
same,"MIC, broth microdilution","P. aeruginosa UNT 138-1 spontaneous mutant, AA139 selection 4X, plate 1, colony 2, drug-free passage 5","0.5, 0.5 µg/mL"
same,"MIC, broth microdilution","P. aeruginosa UNT 138-1 spontaneous mutant, AA139 selection 4X, plate 1, colony 3, drug-free passage 1",1 µg/mL
same,"MIC, broth microdilution","P. aeruginosa UNT 138-1 spontaneous mutant, AA139 selection 4X, plate 1, colony 3, drug-free passage 5",0.5 µg/mL
same,"MIC, broth microdilution","P. aeruginosa UNT 138-1 spontaneous mutant, AA139 selection 4X, plate 1, colony 4, drug-free passage 1","0.5, 0.5 µg/mL"
same,"MIC, broth microdilution","P. aeruginosa UNT 138-1 spontaneous mutant, AA139 selection 4X, plate 1, colony 4, drug-free passage 5","0.5, 0.5 µg/mL"
same,"MIC, broth microdilution","P. aeruginosa UNT 138-1 spontaneous mutant, AA139 selection 4X, plate 1, colony 5, drug-free passage 1",1 µg/mL
same,"MIC, broth microdilution","P. aeruginosa UNT 138-1 spontaneous mutant, AA139 selection 4X, plate 1, colony 5, drug-free passage 5",0.5 µg/mL
same,"MIC, broth microdilution","P. aeruginosa UNT 138-1 spontaneous mutant, AA139 selection 4X, plate 1, colony 6, drug-free passage 1",1 µg/mL
same,"MIC, broth microdilution","P. aeruginosa UNT 138-1 spontaneous mutant, AA139 selection 4X, plate 1, colony 6, drug-free passage 5",0.5 µg/mL
same,"MIC, broth microdilution","P. aeruginosa UNT 138-1 spontaneous mutant, AA139 selection 4X, plate 1, colony 7, drug-free passage 1","0.5, 0.5 µg/mL"
same,"MIC, broth microdilution","P. aeruginosa UNT 138-1 spontaneous mutant, AA139 selection 4X, plate 1, colony 7, drug-free passage 5","0.5, 0.5 µg/mL"
same,"MIC, broth microdilution","P. aeruginosa UNT 138-1 spontaneous mutant, AA139 selection 4X, plate 2, colony 1, drug-free passage 1","1, 1 µg/mL"
same,"MIC, broth microdilution","P. aeruginosa UNT 138-1 spontaneous mutant, AA139 selection 4X, plate 2, colony 1, drug-free passage 5","1, 1 µg/mL"
same,"MIC, broth microdilution","P. aeruginosa UNT 138-1 spontaneous mutant, AA139 selection 4X, plate 2, colony 2, drug-free passage 1","0.5, 0.5 µg/mL"
same,"MIC, broth microdilution","P. aeruginosa UNT 138-1 spontaneous mutant, AA139 selection 4X, plate 2, colony 2, drug-free passage 5","0.5, 0.5 µg/mL"
same,"MIC, broth microdilution","P. aeruginosa UNT 138-1 spontaneous mutant, AA139 selection 4X, plate 2, colony 3, drug-free passage 1",1 µg/mL
same,"MIC, broth microdilution","P. aeruginosa UNT 138-1 spontaneous mutant, AA139 selection 4X, plate 2, colony 3, drug-free passage 5",0.5 µg/mL
same,"MIC, broth microdilution","P. aeruginosa UNT 138-1 spontaneous mutant, AA139 selection 4X, plate 2, colony 4, drug-free passage 1","0.5, 0.5 µg/mL"
same,"MIC, broth microdilution","P. aeruginosa UNT 138-1 spontaneous mutant, AA139 selection 4X, plate 2, colony 4, drug-free passage 5","0.5, 0.5 µg/mL"
same,"MIC, broth microdilution","P. aeruginosa UNT 138-1 spontaneous mutant, AA139 selection 4X, plate 2, colony 5, drug-free passage 1",1 µg/mL
same,"MIC, broth microdilution","P. aeruginosa UNT 138-1 spontaneous mutant, AA139 selection 4X, plate 2, colony 5, drug-free passage 5",0.5 µg/mL
same,"MIC, broth microdilution","P. aeruginosa UNT 138-1 spontaneous mutant, AA139 selection 4X, plate 2, colony 6, drug-free passage 1","0.5, 0.5 µg/mL"
same,"MIC, broth microdilution","P. aeruginosa UNT 138-1 spontaneous mutant, AA139 selection 4X, plate 2, colony 6, drug-free passage 5","0.5, 0.5 µg/mL"
same,"MIC, broth microdilution","P. aeruginosa UNT 138-1 spontaneous mutant, AA139 selection 4X, plate 2, colony 7, drug-free passage 1","0.5, 0.5 µg/mL"
same,"MIC, broth microdilution","P. aeruginosa UNT 138-1 spontaneous mutant, AA139 selection 4X, plate 2, colony 7, drug-free passage 5","0.5, 0.5 µg/mL"
same,"MIC, broth microdilution","P. aeruginosa UNT 138-1 spontaneous mutant, AA139 selection 8X, plate 1, colony 1, drug-free passage 1",0.5 µg/mL
same,"MIC, broth microdilution","P. aeruginosa UNT 138-1 spontaneous mutant, AA139 selection 8X, plate 1, colony 1, drug-free passage 5",2 µg/mL
same,"MIC, broth microdilution","P. aeruginosa UNT 138-1 spontaneous mutant, AA139 selection 8X, plate 1, colony 2, drug-free passage 1",1 µg/mL
same,"MIC, broth microdilution","P. aeruginosa UNT 138-1 spontaneous mutant, AA139 selection 8X, plate 1, colony 2, drug-free passage 5",0.5 µg/mL
same,"MIC, broth microdilution","P. aeruginosa UNT 138-1 spontaneous mutant, AA139 selection 8X, plate 1, colony 3, drug-free passage 1","0.5, 0.5 µg/mL"
same,"MIC, broth microdilution","P. aeruginosa UNT 138-1 spontaneous mutant, AA139 selection 8X, plate 1, colony 3, drug-free passage 5","0.5, 0.5 µg/mL"
same,"MIC, broth microdilution","P. aeruginosa UNT 138-1 spontaneous mutant, AA139 selection 8X, plate 1, colony 4, drug-free passage 1",1 µg/mL
same,"MIC, broth microdilution","P. aeruginosa UNT 138-1 spontaneous mutant, AA139 selection 8X, plate 1, colony 4, drug-free passage 5",0.5 µg/mL
same,"MIC, broth microdilution","P. aeruginosa UNT 138-1 spontaneous mutant, AA139 selection 8X, plate 1, colony 5, drug-free passage 1","0.5, 0.5 µg/mL"
same,"MIC, broth microdilution","P. aeruginosa UNT 138-1 spontaneous mutant, AA139 selection 8X, plate 1, colony 5, drug-free passage 5","0.5, 0.5 µg/mL"
same,"MIC, broth microdilution","P. aeruginosa UNT 138-1 spontaneous mutant, AA139 selection 8X, plate 2, colony 1, drug-free passage 1","0.5, 0.5 µg/mL"
same,"MIC, broth microdilution","P. aeruginosa UNT 138-1 spontaneous mutant, AA139 selection 8X, plate 2, colony 1, drug-free passage 5","0.5, 0.5 µg/mL"
